Measured values: patent US20080103198A1, “METHODS FOR TREATMENT OF COCHLEAR AND VESTIBULAR DISORDERS” (priority 2006, published 2008)

How the values were obtained:
[1] = tested on: transient cerebral ischemia (MCAO); assay: Transient cerebral ischemia middle cerebral artery occlusion (MCAO) rat model; type: in vivo; details: N=12
Procedure: The enantiomer of Formula 7 was investigated in the transient cerebral ischemia middle cerebral artery occlusion (MCAO) rat model (as described in Nagasawa H. and Kogure K., Stroke, 1989, 20, 1037; and, Zea Longa E., Weinstein P. R., Carlson S, and Cummins R., Stroke, 1989, 20, 84) using male Wistar rats at 10 and 100 mg/kg (i.v.). MK 801 (Dizocilpine maleate; CAS Registry number 77086-22-7, a commercially available neuroprotectant compound) was used as a positive control (3 mg/kg, i.p.).
Rats (n=12) were randomly allocated to one of four experimental groups and were anesthetized. Blood flow from the internal carotid artery, anterior cerebral artery and posterior cerebral artery into the middle cerebral artery was blocked by this procedure. One hour after blockage, animals were treated over a 1 hour period with vehicle (administered i.v. over the one hour period), control (administered as a single i.p. dose at the start of the one hour period) and two doses of the enantiomer of Formula 7 (administered i.v. over the one hour period). Two hours after blockage, reperfusion was performed.
The animals were sacrificed and […] coronal sections of each brain were prepared. One in every forty sections (i.e. every […]) from the front to the occipital cortex was used to quantify the extent of the cerebral lesion. Slides were prepared using sections stained (according to the Nissl procedure) with cresyl violet and were examined under a light microscope.
Regional ischemic surface areas in the coronal sections of individual rats were determined according to the presence of cells with morphological changes. The areas of neuronal injury or infarction were measured and then added. The cortex and striatum volume were calculated for each animal (total ischemic surface area×0.8 mm (thickness)).
The mean volumes (.+−.S.E.M.) for each animal randomly assigned to the four experimental groups were compared using one-way ANOVA (one way ANOVA is a statistical method which compares 3 or more unmatched groups) followed by Dunnett's t-test (both methods incorporated in Statview 512+software, BarinPower, Calabasas, Calif., USA).

PC12 cells = assay: PC12 cell serum withdrawal model (MTS assay); type: cell-based; details: control cells = 100%
From the text: Serum withdrawal is a cytotoxic environmental challenge that results in cell death in cultured cell lines as well as in primary cells of various tissue origins, including nerve cells. In particular, pheochromocytoma (PC) 12 cells have been widely employed as an in vitro neuronal cell model for a wide variety of neurodegenerative and cell death related disorders (Muriel, et al, Mitochondrial free calcium levels (Rhod-2 fluorescence) and ultrastructural alterations in neuronally differentiated PC12 cells during ceramide-dependent cell death, J. Comp. Neurol., 2000, 426(2), 297-315; Dermitzaki, et al, Opioids transiently prevent activation of apoptotic mechanisms following short periods of serum withdrawal, J. Neurochem., 2000, 74(3), 960-969; Carlile, et al, Reduced apoptosis after nerve growth factor and serum withdrawal: conversion of tetrameric glyceraldehyde-3-phosphate dehydrogenase to a dimer, Mol. Pharmacol., 2000, 57(1), 2-12).
PC12 cells were cultured in sterile media (RPMI 1640) supplemented with 10% heat-inactivated horse serum and 5% fetal bovine serum (FBS). The culture medium also contained Penicillin-Streptomycin-Neomycin antibiotic (50µg, 50µg, 100µg, respectively). Medium was exchanged every other day and the cells were passed in log phase near confluence.
The control cells were cultured in regular media without any treatment. An enantiomer of Formula 7 or Formula 8 (10µM) was mixed well in the medium and then applied to the cells. For the 2 day assay, an enantiomer of Formula 7 or Formula 8 (10µM) was only applied to the cells once at the time of serum withdrawal. For the 7 day assay, an enantiomer of Formula 7 or Formula 8 (10. mu.M) was applied to the cells at the time of serum withdrawal and every 48 hr thereafter when cells were changed with fresh new serum-free medium. In the serum withdrawal group, the cells were cultured in serum-free medium with no additional enantiomer of Formula 7 or Formula 8. Cell survival was determined by the 3-(4,5-dimethylthiazol-2-yl)-5-(3-carboxy-methoxyphenyl)-2-(4-sulfophenyl)-2H-tetrazolium inner salt (MTS) assay at 2 or 7 days after serum withdrawal.
At the end of the experiment, cells were washed with fresh medium and incubated with MTS solution in a humidified 37° C. with 5% CO2 incubator for 1.5 hr. After the incubation period, the cells were immediately analyzed using a Softmax program (Molecular Devices). […] The assay is based on the cellular conversion of the tetrazolium salt, MTS, into a formazan that is soluble in tissue culture medium and measured directly at 490 nm in 96-well assay plates. The absorbance is directly proportional to the number of living cells in culture. The arbitrary absorbance reading in control cells is expressed as 100% survival rate.

[2] = Formula 7 10 mg/kg i.v. over 1 hour
[3] = Formula 7 100 mg/kg i.v. over 1 hour

`NC(=O)OC[C@@H](O)c1ccccc1Cl` [test compound] was tested, and the “Mean Infarct Volume ± S.E.M., Cortex Volume” value [1, 2] was 201.0 ± 23.9 ^ mm^3, the “Mean Infarct Volume ± S.E.M., Striatum” value [1, 2] was 75.9 ± 2.6^ mm^3 and the “Mean Infarct Volume ± S.E.M., Total” value [1, 2] was 276.9 ± 25.4^ mm^3. The “Mean Infarct Volume ± S.E.M., Cortex Volume” value [1, 3] was 98.8 ± 29.5^1 mm^3, the “Mean Infarct Volume ± S.E.M., Striatum” value [1, 3] was 63.0 ± 5.9^2 mm^3 and the “Mean Infarct Volume ± S.E.M., Total” value [1, 3] was 161.9 ± 34.3^1 mm^3. For the same compound, the “2 Day Survival Rate” value (PC12 cells; 10 µM applied once at serum withdrawal) was 69.4 ± 1.7^1% and the “7 Day Survival Rate” value (PC12 cells; 10 µM at serum withdrawal and every 48 hr) was 79.9 ± 4.0^2%.
